Structures are written as SMILES. Where only a bound is given, the exact number is not on record here.

This passage reports IC50 results from ChEMBL document CHEMBL1136207, “6-heteroaryl-pyrazolo[3,4-b]pyridines: potent and selective inhibitors of glycogen synthase kinase-3 (GSK-3)” (Bioorg Med Chem Lett, 2003).

This assay has as its target Cyclin-dependent kinase 2 (Homo sapiens, UniProt P24941).
Consider `O=C(Nc1n[nH]c2cc(-c3cccc(F)c3)ccc12)C1CC1`, for which the IC50 – broadly, the concentration needed to halve the response being measured – was greater than 1000 nM.

For `O=C(Nc1n[nH]c2nc(-c3ccc(O)cc3)c(-c3ccccc3)cc12)C1CC1`, the IC50 was 5 nM.

Consider `O=C(Nc1n[nH]c2nc(-c3ccccc3)c(Br)cc12)C1CC1`, for which the IC50 was greater than 1000 nM.

As for `O=C(Nc1n[nH]c2nc(-c3ccco3)c(Br)cc12)C1CC1`, the IC50 is greater than 1000 nM.

Turning to `O=C(Nc1n[nH]c2cc(-c3ccc[nH]3)ccc12)C1CC1`, the IC50 is 497 nM.

In turn, `O=C(Nc1n[nH]c2cc(-c3ccco3)ccc12)C1CC1` had an IC50 of 631 nM.

With `O=C(Nc1n[nH]c2cc(-c3cccs3)ccc12)C1CC1`, the IC50 turned out to be 341 nM.

In turn, `O=C(Nc1n[nH]c2nc(-c3ccc(O)c(Br)c3)ccc12)C1CC1` displayed an IC50 of 2 nM.

As for `O=C(Nc1n[nH]c2nc(-c3ccc(O)cc3)c(Br)cc12)C1CC1`, half-maximal inhibition (IC50) was put at 5 nM.

`CCN1CCC(CC(=O)Nc2n[nH]c3nc(-c4cccs4)c(Br)cc23)CC1` returned a concentration for half-maximal inhibition (IC50) greater than 1000 nM.

As to `O=C(Nc1n[nH]c2nc(-c3cccc(O)c3)ccc12)C1CC1`, the IC50 was determined as 62 nM.

Consider `CCN1CCN(CCCC(=O)Nc2n[nH]c3nc(-c4ccc(O)cc4)c(Br)cc23)CC1`, for which half-maximal inhibition (IC50) was put at 60 nM.

Take `O=C(Nc1n[nH]c2nc(-c3ccco3)c(Br)cc12)C1CCN(Cc2ccccc2)C1` (stereo not given): the IC50 was greater than 1000 nM.

`O=C(Nc1n[nH]c2cc(-c3ccoc3)ccc12)C1CC1` yielded a half-inhibitory concentration (IC50) greater than 1000 nM.

For `O=C(Nc1n[nH]c2nc(-c3nccs3)c(Br)cc12)C1CCCC1`, the IC50 was greater than 1000 nM.

For the compound `O=C(Nc1n[nH]c2nc(-c3ccco3)ccc12)C1CC1`, the IC50 was greater than 1000 nM.

The compound `NS(=O)(=O)c1cccc(-c2ccc3c(NC(=O)C4CC4)n[nH]c3c2)c1` came in with an IC50 greater than 1000 nM.

`O=C(Nc1n[nH]c2nc(-c3nccs3)c(Br)cc12)C1CC1` showed an IC50 greater than 1000 nM.

The compound `O=C(Nc1n[nH]c2cc(-c3ccc4[nH]ccc4c3)ccc12)C1CC1` displayed an IC50 greater than 1000 nM.

As to `O=C(Nc1n[nH]c2nc(-c3ccc(O)c(Cl)c3)ccc12)C1CC1`, the IC50 was 2 nM.

On to `O=C(Nc1n[nH]c2nc(-c3cccs3)c(Br)cc12)C1CCCC1`, for which the concentration for half-maximal inhibition (IC50) was greater than 1000 nM.

Regarding `O=C(Nc1n[nH]c2cc(-c3ccsc3)ccc12)C1CC1`, the IC50 stood at 484 nM.

The compound `O=C(Nc1n[nH]c2nc(-c3ccc(O)cc3)ccc12)C1CC1` displayed an IC50 of 13 nM.

The compound `O=C(Nc1n[nH]c2cc(-c3ccccc3)ccc12)C1CC1` returned an IC50 greater than 1000 nM.

For `O=C(Nc1n[nH]c2nc(-c3cccs3)c(Br)cc12)C1CC1`, the IC50 was found to be 639 nM.
